Columns and labels:
Type in all cases: in vivo
[1] = system: Beet Armyworm (BAW) (Spodoptera exigua); assay: Bioassays on BAW, 128-well diet tray assay; details: Spodoptera exigua, 168 h; 50 μg/cm^2 on artificial diet, second instar larvae, five to seven days, 25° C.; read-out: BAW Rating (percent mortality)
Method: (§1) Certain molecules disclosed in this document were tested against BAW, CEW and CL using procedures described in the following examples. In the reporting of the results, the “BAW & CEW & CL Rating Table” was used (See Table Section).
Bioassays on BAW (Spodoptera exigua)
Bioassays on BAW were conducted using a 128-well diet tray assay. One to five second instar BAW larvae were placed in each well (3 mL) of the diet tray that had been previously filled with 1 mL of artificial diet to which 50 μg/cm^2 of the test compound (dissolved in 50 μL of 90:10 acetone-water mixture) had been applied (to each of eight wells) and then allowed to dry. Trays were covered with a clear self-adhesive cover, and held at 25° C., 14:10 light-dark for five to seven days. Percent mortality was recorded for the larvae in each well; activity in the eight wells was then averaged. The results are indicated in the tables entitled “Table 3: Assay Results Part 1” and “Table 4: Assay Results Part 2” (See Table Section).

[2] = system: Green Peach Aphid (GPA) (Myzus persicae); assay: Bioassays on Green Peach Aphid, foliar spray on cabbage seedlings; details: 200 ppm spray on cabbage seedlings, graded after three days
Source text: GPA is the most significant aphid pest of peach trees, causing decreased growth, shriveling of the leaves, and the death of various tissues. It is also hazardous because it acts as a vector for the transport of plant viruses, such as potato virus Y and potato leafroll virus to members of the nightshade/potato family Solanaceae, and various mosaic viruses to many other food crops. GPA attacks such plants as broccoli, burdock, cabbage, carrot, cauliflower, daikon, eggplant, green beans, lettuce, macadamia, papaya, peppers, sweet potatoes, tomatoes, watercress, and zucchini, among other plants. GPA also attacks many ornamental crops such as carnation, chrysanthemum, flowering white cabbage, poinsettia, and roses. GPA has developed resistance to many pesticides.
Certain molecules disclosed in this document were tested against GPA using procedures described in the following example. In the reporting of the results, the “GPA Rating Table” was used (See Table Section).
Cabbage seedlings grown in 3-inch pots, with 2-3 small (3-5 cm) true leaves, were used as test substrate. The seedlings were infested with 20-50 GPA (wingless adult and nymph stages) one day prior to chemical application. […] Percent Control was measured by using Abbott's correction formula (W. S. Abbott, “A Method of Computing the Effectiveness of an Insecticide” J. Econ. Entomol. 18 (1925), pp. 265-267) as follows. […]

[3] = system: Cabbage Looper (CL) (Trichoplusia ni); assay: Bioassays on CL, 128-well diet tray assay; details: 168 h, 50 μg/cm^2 on artificial diet, second instar larvae, five to seven days, 25° C., read-out: CL Rating (percent mortality)
Method: as §1
Bioassays on CL (Trichoplusia ni)
Bioassays on CL were conducted using a 128-well diet tray assay. One to five second instar CL larvae were placed in each well (3 mL) of the diet tray that had been previously filled with 1 mL of artificial diet to which 50 μg/cm^2 of the test compound (dissolved in 50 μL of 90:10 acetone-water mixture) had been applied (to each of eight wells) and then allowed to dry. Trays were covered with a clear self-adhesive cover, and held at 25° C., 14:10 light-dark for five to seven days. Percent mortality was recorded for the larvae in each well; activity in the eight wells was then averaged. The results are indicated in the table entitled “Table 4: Assay Results Part 2” (See Table Section).

Row | SMILES | mortality at 50 µg/cm2 [1] [%] | GPA Rating (corrected % control) [2] | mortality at 50 µg/cm2 [3] [%]
1 | O=C(NC1(C(=O)NCC(F)(F)F)CC1)c1ccc(/C=C/C(c2cc(Cl)c(Cl)c(Cl)c2)C(F)(F)F)cc1I (stereo not shown) [FA2] | 50 to 100 | B (More than 0 - Less than 80) | 50 to 100
2 | O=C(NC1(C(=O)NCC(F)(F)F)CC1)c1ccc(/C=C/C(c2cc(Cl)c(Cl)cc2Cl)C(F)(F)F)cc1Br (stereo not shown) [Compound P108] | 50 to 100 |  | 50 to 100
3 | O=C(NC1(C(=O)NCC(F)F)CC1)c1ccc(/C=C/C(c2cc(Cl)c(Cl)c(Cl)c2)C(F)(F)F)cc1Br (stereo not shown) [FA32] | 50 to 100 |  | 50 to 100
4 | O=C(NC1(C(=S)NCC(F)(F)F)CC1)c1ccc(/C=C/C(c2cc(Cl)c(Cl)c(Cl)c2)C(F)(F)F)cc1Br (stereo not shown) [Compound P1009] | 50 to 100 |  | 50 to 100
5 | O=C(NC1(C(=O)NCC(F)(F)F)CC1)c1ccc(/C=C/C(c2cc(Cl)c(Cl)c(Cl)c2)C(F)(F)F)cc1C(F)(F)F (stereo not shown) [Compound F8] | 50 to 100 |  | 50 to 100
6 | O=C(NC1(C(=O)NC2CCOC2)CC1)c1ccc(/C=C/C(c2cc(Cl)c(Cl)c(Cl)c2)C(F)(F)F)cc1Br (stereo not shown) [FA25] | 50 to 100 |  | 50 to 100
7 | O=C(NC1(C(=O)NCC(F)(F)F)CC1)c1ccc(/C=C/C(c2cc(Cl)cc(Cl)c2)C(F)(F)F)cc1Br (stereo not shown) [Compound P1048] | 50 to 100 |  | 50 to 100
8 | O=C(NC1(C(=O)NCCC(F)(F)F)CC1)c1ccc(/C=C/C(c2cc(Cl)c(Cl)c(Cl)c2)C(F)(F)F)cc1C(F)(F)F (stereo not shown) [Compound P1035] | 50 to 100 |  | 50 to 100
9 | COc1cccc(CNC(=O)C2(NC(=O)c3ccc(/C=C/C(c4cc(Cl)c(Cl)c(Cl)c4)C(F)(F)F)cc3Br)CC2)c1 (stereo not shown) [FA35] | 50 to 100 |  | 50 to 100
10 | Cc1cc(C(/C=C/c2ccc(C(=O)NC3(C(=O)NCC(F)(F)F)CC3)c(C(F)(F)F)c2)C(F)(F)F)ccc1F (stereo not shown) [Compound P336] | 50 to 100 |  | 50 to 100
11 | O=C(NC1(C(=O)NCC(F)(F)F)CC1)c1ccc(/C=C/C(c2ccc(F)c(F)c2F)C(F)(F)F)cc1C(F)(F)F (stereo not shown) [Compound P65] | 50 to 100 |  | 50 to 100
12 | O=C(NC1(C(=O)NCC2CCOC2)CC1)c1ccc(/C=C/C(c2cc(Cl)c(Cl)c(Cl)c2)C(F)(F)F)cc1Br (stereo not shown) [FA21] | 50 to 100 |  | 50 to 100
13 | CCNC(=O)C1(NC(=O)c2ccc(/C=C/C(c3cc(Cl)c(Cl)c(Cl)c3)C(F)(F)F)cc2C)CC1 (stereo not shown) [Compound P1026] | 50 to 100 |  | 50 to 100
14 | O=C(NC1(C(=O)NCC(F)(F)F)CC1)c1ccc(/C=C/C(c2ccc(Br)c(Br)c2)C(F)(F)F)cc1C(F)(F)F (stereo not shown) [Compound P425] | 50 to 100 |  | 50 to 100
15 | O=C(NC1(C(=O)NCc2ccc(Cl)cc2)CC1)c1ccc(/C=C/C(c2cc(Cl)c(Cl)c(Cl)c2)C(F)(F)F)cc1Br (stereo not shown) [FA16] | 50 to 100 |  | 50 to 100
16 | O=C(NC1(C(=O)NCC(F)F)CC1)c1ccc(/C=C/C(c2cc(Br)cc(Br)c2)C(F)(F)F)cc1Br (stereo not shown) [Compound P1193] | 50 to 100 |  | 50 to 100
17 | O=C(NC1(C(=O)NCC(F)(F)F)CC1)c1ccc(/C=C/C(c2ccc(Cl)c([N+](=O)[O-])c2)C(F)(F)F)cc1Br (stereo not shown) [Compound P468] | 50 to 100 |  | 50 to 100
18 | O=C(NC1(C(=O)NCCC(F)(F)F)CC1)c1ccc(/C=C/C(c2cc(Br)cc(Br)c2)C(F)(F)F)cc1Br (stereo not shown) [Compound P1213] | 50 to 100 |  | 50 to 100
19 | O=C(NC1(C(=O)NCC(F)(F)F)CCC1)c1ccc(/C=C/C(c2cc(Cl)c(Cl)c(Cl)c2)C(F)(F)F)cc1Br (stereo not shown) [Compound F5] | 50 to 100 | B (More than 0 - Less than 80) | 50 to 100
20 | N#CC1(NC(=O)c2ccc(/C=C/C(c3cc(Cl)c(Cl)c(Cl)c3)C(F)(F)F)cc2Br)CC1 (stereo not shown) [Compound F7, (E)-2-Bromo-N-(1-cyanocyclopropyl)-4-(4,4,4-trifluoro-3-(3,4,5-trichlorophenyl)but-1-en-1-yl)benzamide] | 50 to 100 |  | 50 to 100
21 | O=C(NC1(C(=O)NC2CCSC2)CC1)c1ccc(/C=C/C(c2cc(Cl)c(Cl)c(Cl)c2)C(F)(F)F)cc1Br (stereo not shown) [FA19] | 50 to 100 |  | 50 to 100
22 | O=C(NC1(C(=O)NCC(F)(F)F)CC1)c1ccc(/C=C/C(c2cc(Cl)c(Cl)c(Cl)c2)C(F)(F)C(F)(F)F)cc1C(F)(F)F (stereo not shown) [Compound P1005] | 50 to 100 |  | 50 to 100

From US9212164B2, “Pesticidal compositions and processes related thereto” (Dow AgroSciences LLC, priority 2012, dated 2015)
